The experiment concerns the target T1, H^+ --K^+ ATPase (Sus scrofa, UniProt P19156).
T1 construct: prepared from the fundus ventriculi gland of fresh swine gastric mucosa; from tissue; host or cells: swine gastric mucosa, fundus ventriculi gland (modified method of Saccomani et al. 1977)
Nature of the experiment: Inhibition effect on H^+ --K^+ ATPase activity. The class given is biochemical. To be noted: H^+ --K^+ ATPase from fresh swine gastric mucosa, 10 μg protein/ml, pH 7.40, 37° C., 30 minutes incubation; compound dissolved in methanol. The protocol:
Inhibition effect on H^+ --K^+ ATPase activity
(1) Preparation of H^+ --K+ATPase
The enzyme H^+ --K+ATPase was prepared from the fundus ventriculi gland of fresh swine gastric mucosa by a modified method of Saccomani et al. (Biochem. and Biophys. Acta., 464, 313 (1977)).
(2) Determination of H^+ --K^+ ATPase activity
Various concentrations of the compounds of the present invention were incubated together with 10 μg protein/ml of the H^+ --K^+ ATPase in a 40 mM Tris HCl buffer (pH 7.40) at 37° C. for 30 minutes. Then 15 mM KCl was added thereto. Ten minutes thereafter, an ATPase reaction between 3 mM of MgCl2 and ATP was started. Ten minutes thereafter, the liberated inorganic phosphoric acid was determined according to Yoda and Hokin's method (cf. Biochem. Biophys. Res., Com., 40, 880 (1970)).
The test compound was 3-(3-methoxy)propoxy-4-methyl-5H-pyrido[1'.2':4.5][1.2.4.]thiazino[2.3-a]- benzimidazol-13-ium tetrafluoroborate (the compound of Example 1). This compound was dissolved in methanol prior to the test.
The inhibition effect (%) was calculated by dividing the difference between the data of the test group and that of the control group, to which solvent was added exclusively, by the data of the control group.
(1) Preparation of H^+ --K^+ ATPase
The enzyme H^+ --K^+ ATPase was prepared from the fundus ventriculi gland of fresh swine gastric mucosa by a modified method of Saccomani et al. (Biochem. and Biophys. Acta., 464, 313 (1977)).
Various concentrations of the compounds of the present invention were incubated together with 10 μg protein/ml of the H+--K^+ ATPase in a 40 mM Tris HCl buffer (pH 7.40) at 37° C. for 30 minutes. Then 15 mM KCl was added thereto. Ten minutes thereafter, an ATPase reaction between 3 mM of MgCl and ATP was started. Ten minutes thereafter, the liberated inorganic phosphoric acid was determined according to Yoda and Hokin's method (cf. Biochem. Biophys. Res., Com., 40, 880 (1970)).
The test compound was 2-[2-(ethyldithiomethyl)4-(3-methoxy)propoxy-3-methyl-1-pyridinio)benzimidazolide (the compound of Example 1). […]

T1 sequence (P19156 2-1034 limits assumed): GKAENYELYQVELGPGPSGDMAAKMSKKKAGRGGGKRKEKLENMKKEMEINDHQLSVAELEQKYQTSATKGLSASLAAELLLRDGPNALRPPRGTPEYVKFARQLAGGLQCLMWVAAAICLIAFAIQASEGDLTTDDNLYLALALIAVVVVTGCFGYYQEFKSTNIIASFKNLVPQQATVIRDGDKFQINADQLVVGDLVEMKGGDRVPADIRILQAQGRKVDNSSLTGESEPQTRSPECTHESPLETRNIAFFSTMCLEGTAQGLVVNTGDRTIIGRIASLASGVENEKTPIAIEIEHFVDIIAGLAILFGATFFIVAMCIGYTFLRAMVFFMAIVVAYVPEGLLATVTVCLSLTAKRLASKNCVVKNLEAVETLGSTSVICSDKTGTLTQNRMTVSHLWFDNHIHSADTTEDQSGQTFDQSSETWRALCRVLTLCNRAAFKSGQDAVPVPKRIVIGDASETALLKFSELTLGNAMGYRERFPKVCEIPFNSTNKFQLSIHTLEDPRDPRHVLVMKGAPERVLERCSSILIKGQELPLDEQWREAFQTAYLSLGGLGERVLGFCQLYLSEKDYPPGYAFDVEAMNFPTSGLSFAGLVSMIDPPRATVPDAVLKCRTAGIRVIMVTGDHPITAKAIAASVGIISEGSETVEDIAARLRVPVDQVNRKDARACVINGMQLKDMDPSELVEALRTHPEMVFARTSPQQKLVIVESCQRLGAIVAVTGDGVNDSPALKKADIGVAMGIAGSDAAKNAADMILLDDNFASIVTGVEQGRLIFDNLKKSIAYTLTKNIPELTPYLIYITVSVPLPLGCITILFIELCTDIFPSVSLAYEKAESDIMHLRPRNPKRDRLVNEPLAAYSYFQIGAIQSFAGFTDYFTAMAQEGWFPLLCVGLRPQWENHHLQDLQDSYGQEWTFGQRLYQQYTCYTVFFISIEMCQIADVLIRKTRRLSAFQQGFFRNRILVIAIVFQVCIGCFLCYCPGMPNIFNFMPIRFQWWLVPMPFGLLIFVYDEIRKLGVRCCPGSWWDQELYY
T1 sequence (P18434 whole entry partner): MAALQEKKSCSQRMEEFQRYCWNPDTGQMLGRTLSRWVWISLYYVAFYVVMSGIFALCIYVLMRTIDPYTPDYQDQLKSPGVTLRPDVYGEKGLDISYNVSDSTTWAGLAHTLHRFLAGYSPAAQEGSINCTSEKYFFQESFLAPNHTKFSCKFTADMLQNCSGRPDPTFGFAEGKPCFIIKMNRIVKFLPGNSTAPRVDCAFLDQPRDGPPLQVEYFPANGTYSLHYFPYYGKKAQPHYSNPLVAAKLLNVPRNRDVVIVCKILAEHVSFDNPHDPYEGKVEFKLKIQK

The term IC50 denotes the midpoint of a concentration-inhibition curve. Read a high IC50 as a need for much substance. On to `COCCCOc1cc[n+]2c(c1C)CSn1c-2nc2ccccc21` [Example 1, 3-(3-Methoxy)propoxy-4-methyl-5H-pyrido[1'.2':4.5][1.2.4]thiaziano[2.3-a]benzimidazol-13-ium tetrafluoroborate], for which the IC50 worked out at 0.44 µM.
Next, `COc1ccc2[nH]c([S+]([O-])Cc3ncc(C)c(OC)c3C)nc2c1` (stereo not drawn) [Omeprazole, reference compound]: 11 µM; `CCSSCc1c(C)c(OCCCOC)cc[n+]1-c1nc2ccccc2[n-]1` [Example 12, 2-[2-(Ethyldithiomethyl)-4-(3-methoxy)propoxy-3-methyl-1pyridinio]benzimidazolide]: > 10 µM.
